Assay results taken from patent US20250195536A1, “BICYCLOOCTANE KRAS INHIBITORS” (Incyte Corporation, priority 2023, published 2025).

What was measured:
KRAS G12D = KRAS G12D (Homo sapiens, UniProt P01116, G12D); assay: GDP-GTP exchange assay (KRAS G12D); type: biochemical; settings: bodipy-GDP/GppNHp exchange with SOS1; 4 h pre-incubation, 2 h reaction;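 note: one dagger IC50 up to 100 nM and two daggers above 100 nM up to 1 μM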
Outline: (§1)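 IC50 came from a four-parameter fit of fluorescence loss (485/520 nm) as SOS1 (150 nM) swapped bodipy-GDP for GppNHp (500 μM) on 2.5 nM KRAS, final concentrations. Compounds were pre-incubated 4 h at r.t. (pH 7.5 Hepes, 10 mM MgCl2); exchange ran 2 h (G12D) or 3 h (G12V).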

KRAS G12V = KRAS G12V (Homo sapiens, UniProt P01116, G12V); assay: GDP-GTP exchange assay (KRAS G12V); type: biochemical; settings: bodipy-GDP/GppNHp exchange with SOS1; 3 h incubation after GppNHp-SOS1;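 note: one dagger IC50 up to 100 nM and two daggers above 100 nM up to 1 μM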
KRAS G12V, sequence (P01116 1-188 isoform P01116-2 G12V): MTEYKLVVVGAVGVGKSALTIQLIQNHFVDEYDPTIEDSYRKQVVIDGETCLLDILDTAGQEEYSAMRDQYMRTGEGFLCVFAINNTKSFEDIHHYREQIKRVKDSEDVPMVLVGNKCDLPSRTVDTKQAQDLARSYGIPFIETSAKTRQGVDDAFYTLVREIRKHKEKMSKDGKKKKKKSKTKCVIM
Outline: as §1

[1] = Caco2 assay (permeability, Papp A-B); type: in vitro ADME; settings: human, Caco-2, absorptive direction (A-B), 50 μM test compound, 4% BSA in receiver
Outline: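 Absorptive (A-B) Papp: 50 μM test compound in HBSS added to apical side of 22-25-day Caco-2 monolayers (TEER 300 Ω·cm^2), receiver buffer containing 4% BSA. After 120 min at 37 °C, 5% CO2, both sides analysed by LCMS; Papp calculated from flux rate normalized to area and donor amount.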

KRAS G12D, sequence (P01116 1-188 isoform P01116-2 G12D): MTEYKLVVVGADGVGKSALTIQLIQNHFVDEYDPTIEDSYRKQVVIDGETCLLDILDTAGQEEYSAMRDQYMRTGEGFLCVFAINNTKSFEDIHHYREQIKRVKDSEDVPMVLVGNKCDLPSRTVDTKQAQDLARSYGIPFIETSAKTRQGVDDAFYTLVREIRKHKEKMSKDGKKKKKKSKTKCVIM

Row | SMILES | G12D_exchange (KRAS_G12D exchange assay IC50) (KRAS G12D) | G12V_exchange (KRAS_G12V exchange assay IC50) (KRAS G12V) | Papp A→B at 120 min, 50 μM [1] [×10⁻⁶ cm/s]
1 | COc1cccnc1N1C[C@@H]2C[C@H](C1)N(C(=O)C1CC1)[C@H]2c1cc2c(C)nc3c(F)c(-c4cccc(Cl)c4Cl)c(CCC#N)cc3c2n1[C@H]1[C@H]2CN[C@@H]1C2 (atropisomer, axis not shown; (Ra)) [Example 49, 3-((Ra)-1-((1R,4R,5S)-2-azabicyclo[2.1.1]hexan-5-yl)-2-((1S,5R,7R)-6-(cyclopropanecarbonyl)-3-(3-methoxypyridin-2-yl)-3,6-diazabicyclo[3.2.1]octan-7-yl)-7-(2,3-dichlorophenyl)-6-fluoro-4-methyl-1H-pyrrolo[3,2-c]quinolin-8-yl)propanenitrile] | † | † | ≤ 0.5
2 | Cc1nc2c(F)c(-c3cccc(Cl)c3Cl)c(CCC#N)cc2c2c1cc([C@H]1[C@H]3C[C@H](CN(c4nccc(C(F)(F)F)c4F)C3)N1C(=O)C1CC1)n2[C@H]1[C@H]2CN[C@@H]1C2 (atropisomer, axis not shown; (Ra)) [Example 50, 3-((Ra)-1-((1R,4R,5S)-2-azabicyclo[2.1.1]hexan-5-yl)-2-((1S,5R,7R)-6-(cyclopropanecarbonyl)-3-(3-fluoro-4-(trifluoromethyl)pyridin-2-yl)-3,6-diazabicyclo[3.2.1]octan-7-yl)-7-(2,3-dichlorophenyl)-6-fluoro-4-methyl-1H-pyrrolo[3,2-c]quinolin-8-yl)propanenitrile] | †† | † | ≤ 0.5
3 | Cc1ccnc(N2C[C@@H]3C[C@H](C2)N(C(=O)C2CC2)[C@H]3c2cc3c(C)nc4c(F)c(-c5cccc(Cl)c5Cl)c(CCC#N)cc4c3n2[C@H]2[C@H]3CN[C@@H]2C3)c1F (atropisomer, axis not shown; (Ra)) [Example 51, 3-((Ra)-1-((1R,4R,5S)-2-azabicyclo[2.1.1]hexan-5-yl)-2-((1S,5R,7R)-6-(cyclopropanecarbonyl)-3-(3-fluoro-4-methylpyridin-2-yl)-3,6-diazabicyclo[3.2.1]octan-7-yl)-7-(2,3-dichlorophenyl)-6-fluoro-4-methyl-1H-pyrrolo[3,2-c]quinolin-8-yl)propanenitrile] | † | † | 0.5 to 1
4 | Cc1ccc(F)c(N2C[C@@H]3C[C@H](C2)N(C(=O)C2CC2)[C@H]3c2cc3c(C)nc4c(F)c(-c5cccc(Cl)c5Cl)c(CCC#N)cc4c3n2[C@H]2[C@H]3CN[C@@H]2C3)n1 (atropisomer, axis not shown; (Ra)) [Example 52, 3-((Ra)-1-((1R,4R,5S)-2-azabicyclo[2.1.1]hexan-5-yl)-2-((1S,5R,7R)-6-(cyclopropanecarbonyl)-3-(3-fluoro-6-methylpyridin-2-yl)-3,6-diazabicyclo[3.2.1]octan-7-yl)-7-(2,3-dichlorophenyl)-6-fluoro-4-methyl-1H-pyrrolo[3,2-c]quinolin-8-yl)propanenitrile] | †† | † | 0.5 to 1
5 | Cc1cnc(N2C[C@@H]3C[C@H](C2)N(C(=O)C2CC2)[C@H]3c2cc3c(C)nc4c(F)c(-c5cccc(Cl)c5Cl)c(CCC#N)cc4c3n2[C@H]2[C@H]3CN[C@@H]2C3)c(F)c1 (atropisomer, axis not shown; (Ra)) [Example 53, 3-((Ra)-1-((1R,4R,5S)-2-azabicyclo[2.1.1]hexan-5-yl)-2-((1S,5R,7R)-6-(cyclopropanecarbonyl)-3-(3-fluoro-5-methylpyridin-2-yl)-3,6-diazabicyclo[3.2.1]octan-7-yl)-7-(2,3-dichlorophenyl)-6-fluoro-4-methyl-1H-pyrrolo[3,2-c]quinolin-8-yl)propanenitrile] | † | † | 0.5 to 1

The next lines start with the values.

Row | G12D_exchange (KRAS_G12D exchange assay IC50) (KRAS G12D) | G12V_exchange (KRAS_G12V exchange assay IC50) (KRAS G12V) | Papp A→B at 120 min, 50 μM [1] [×10⁻⁶ cm/s] | SMILES
6 | † | † | ≤ 0.5 | Cc1nc2c(F)c(-c3cccc(Cl)c3Cl)c(CCC#N)cc2c2c1cc([C@H]1[C@H]3C[C@H](CN(c4nccc(C(F)F)c4F)C3)N1C(=O)C1CC1)n2[C@H]1[C@H]2CN[C@@H]1C2 (atropisomer, axis not shown; (Ra)) [Example 54, 3-((Ra)-1-((1R,4R,5S)-2-azabicyclo[2.1.1]hexan-5-yl)-2-((1S,5R,7R)-6-(cyclopropanecarbonyl)-3-(4-(difluoromethyl)-3-fluoropyridin-2-yl)-3,6-diazabicyclo[3.2.1]octan-7-yl)-7-(2,3-dichlorophenyl)-6-fluoro-4-methyl-1H-pyrrolo[3,2-c]quinolin-8-yl)propanenitrile]
7 | †† | † | 0.5 to 1 | COc1ccnc(N2C[C@@H]3C[C@H](C2)N(C(=O)C2CC2)[C@H]3c2cc3c(C)nc4c(F)c(-c5cccc(Cl)c5Cl)c(CCC#N)cc4c3n2[C@H]2[C@H]3CN[C@@H]2C3)c1F (atropisomer, axis not shown; (Ra)) [Example 55, 3-((Ra)-1-((1R,4R,5S)-2-azabicyclo[2.1.1]hexan-5-yl)-2-((1S,5R,7R)-6-(cyclopropanecarbonyl)-3-(3-fluoro-4-methoxypyridin-2-yl)-3,6-diazabicyclo[3.2.1]octan-7-yl)-7-(2,3-dichlorophenyl)-6-fluoro-4-methyl-1H-pyrrolo[3,2-c]quinolin-8-yl)propanenitrile]
8 | † | † | ≤ 0.5 | Cc1nc2c(F)c(-c3cccc(Cl)c3Cl)c(CCC#N)cc2c2c1cc([C@H]1[C@H]3C[C@H](CN(c4ccn(C(F)F)c(=O)c4)C3)N1C(=O)C1CC1)n2[C@H]1[C@H]2CN[C@@H]1C2 (atropisomer, axis not shown; (Ra)) [Example 56, 3-((Ra)-1-((1R,4R,5S)-2-azabicyclo[2.1.1]hexan-5-yl)-2-((1S,5R,7R)-6-(cyclopropanecarbonyl)-3-(1-(difluoromethyl)-2-oxo-1,2-dihydropyridin-4-yl)-3,6-diazabicyclo[3.2.1]octan-7-yl)-7-(2,3-dichlorophenyl)-6-fluoro-4-methyl-1H-pyrrolo[3,2-c]quinolin-8-yl)propanenitrile]
9 | † | † | ≤ 0.5 | Cc1nc2c(F)c(-c3cccc(Cl)c3Cl)c(CCC#N)cc2c2c1cc([C@H]1[C@H]3C[C@H](CN(c4ccn(CC(C)C)c(=O)c4)C3)N1C(=O)C1CC1)n2[C@H]1[C@H]2CN[C@@H]1C2 (atropisomer, axis not shown; (Ra)) [Example 58, 3-((Ra)-1-((1R,4R,5S)-2-azabicyclo[2.1.1]hexan-5-yl)-2-((1S,5R,7R)-6-(cyclopropanecarbonyl)-3-(1-isobutyl-2-oxo-1,2-dihydropyridin-4-yl)-3,6-diazabicyclo[3.2.1]octan-7-yl)-7-(2,3-dichlorophenyl)-6-fluoro-4-methyl-1H-pyrrolo[3,2-c]quinolin-8-yl)propanenitrile]
10 | † | † | ≤ 0.5 | COc1cc(N2C[C@@H]3C[C@H](C2)N(C(=O)C2CC2)[C@H]3c2cc3c(C)nc4c(F)c(-c5cccc(Cl)c5Cl)c(CCC#N)cc4c3n2[C@H]2[C@H]3CN[C@@H]2C3)ccn1 (atropisomer, axis not shown; (Ra)) [Example 59, 3-((Ra)-1-((1R,4R,5S)-2-azabicyclo[2.1.1]hexan-5-yl)-2-((1S,5R,7R)-6-(cyclopropanecarbonyl)-3-(2-methoxypyridin-4-yl)-3,6-diazabicyclo[3.2.1]octan-7-yl)-7-(2,3-dichlorophenyl)-6-fluoro-4-methyl-1H-pyrrolo[3,2-c]quinolin-8-yl)propanenitrile]
11 | † | † | ≤ 0.5 | Cc1nc2c(F)c(-c3cccc(Cl)c3Cl)c(CCC#N)cc2c2c1cc([C@H]1[C@H]3C[C@H](CN(c4ccnc(C(F)F)c4)C3)N1C(=O)C1CC1)n2[C@H]1[C@H]2CN[C@@H]1C2 (atropisomer, axis not shown; (Ra)) [Example 60, 3-((Ra)-1-((1R,4R,5S)-2-azabicyclo[2.1.1]hexan-5-yl)-2-((1S,5R,7R)-6-(cyclopropanecarbonyl)-3-(2-(difluoromethyl)pyridin-4-yl)-3,6-diazabicyclo[3.2.1]octan-7-yl)-7-(2,3-dichlorophenyl)-6-fluoro-4-methyl-1H-pyrrolo[3,2-c]quinolin-8-yl)propanenitrile]
12 | † | † | ≤ 0.5 | Cc1nc2c(F)c(-c3cccc(Cl)c3Cl)c(CCC#N)cc2c2c1cc([C@H]1[C@H]3C[C@H](CN(c4ccn5ccnc5c4)C3)N1C(=O)C1CC1)n2[C@H]1[C@H]2CN[C@@H]1C2 (atropisomer, axis not shown; (Ra)) [Example 61, 3-((Ra)-1-((1R,4R,5S)-2-azabicyclo[2.1.1]hexan-5-yl)-2-((1S,5R,7R)-6-(cyclopropanecarbonyl)-3-(imidazo[1,2-a]pyridin-7-yl)-3,6-diazabicyclo[3.2.1]octan-7-yl)-7-(2,3-dichlorophenyl)-6-fluoro-4-methyl-1H-pyrrolo[3,2-c]quinolin-8-yl)propanenitrile]
